Measured values reported in US8569295B2, “Bicyclic urea compounds” (Merck Patent GmbH, priority 2009, dated 2013).
Each block holds one molecule with its values, some of them ahead of it.

Biological target: T1, GST-Aurora A (Homo sapiens, UniProt O14965)
T1 construct: N-terminal GST fusion with full length Aurora A (1-403 amino acids); purchased Carna Biosciences 05-101
T1 sequence (O14965 1-403): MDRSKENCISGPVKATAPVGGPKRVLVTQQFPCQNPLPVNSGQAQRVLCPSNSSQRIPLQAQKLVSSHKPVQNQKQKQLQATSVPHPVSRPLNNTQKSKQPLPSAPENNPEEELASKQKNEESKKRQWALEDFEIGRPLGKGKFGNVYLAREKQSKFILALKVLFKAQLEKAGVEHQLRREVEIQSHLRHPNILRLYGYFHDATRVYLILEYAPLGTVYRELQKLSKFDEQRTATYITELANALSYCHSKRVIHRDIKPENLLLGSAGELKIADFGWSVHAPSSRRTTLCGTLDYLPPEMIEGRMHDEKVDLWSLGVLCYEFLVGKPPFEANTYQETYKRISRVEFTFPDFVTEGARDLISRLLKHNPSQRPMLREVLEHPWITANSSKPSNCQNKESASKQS
Assay: Aurora A kinase biochemical mobility shift assay (Caliper LC3000 / Desktop Profiler)
Details: AK A (Aurora kinase A) inhibition
Procedure: The Aurora assays described here are performed on two Caliper Life Sciences systems: the LC3000 and the Desktop Profiler. The RON kinase assays are performed on the Desktop Profiler only. These provide data on enzyme activity via measurement of the relative amounts of phosphorylated or unphosphorylated fluorescently labelled substrate peptide at the end of an enzymatic reaction. These different states of peptide are resolved by applying a potential difference across the sample. The presence of the charged phosphate group on the product (as opposed to the substrate) causes a different peptide mobility between the two peptides. This is visualized by excitation of the fluorescent label on the substrate and product peptides and represented as peaks within the analysis software.
In order to measure inhibitor activity of Aurora A inhibitors in the Caliper Life Sciences LC3000, a TTP Mosquito liquid handling instrument is used to place 0.25 ul of the appropriate concentration of inhibitor in 100% DMSO (for a dose response curve calculation) into each well of a 384-well plate. To this reaction components are added to a final volume of 25 ul: • 0.067 ng/ul GST-Aurora A (Carna Biosciences 05-101. N-terminal GST fusion with full length Aurora A (1-403 amino acids), accession number NP_940835.1). • 15 uM ATP (Fluka, 02055) • 1 mM DTT (Sigma, D0632) • 1 mM MgCl2 (Sigma, M1028) • 1 uM substrate peptide (sequence FITC-LRRASLG-(CONH2), synthesized by Tufts Peptide Synthesis service. • 100 mM HEPES pH 7.5 (Calbiochem, 391338) • 0.015% Brij-35 (Sigma, B4184)
The reaction is incubated for 90 min at 25 C, and then stopped by the addition of 70 ul of Stop buffer (100 mM HEPES pH 7.5, 0.015% Brij-35, 10 mM EDTA (Sigma, E7889)).
The plate is read on a Caliper LC3000 in an Off-Chip mobility shift assay format, using the following parameters for a 12-sipper chip: screening pressure −1.8 psi, upstream voltage −2700, downstream voltage −1000. These conditions cause unphosphorylated substrate and phosphorylated product peptide to resolve as separate peaks allowing direct measurement of percentage of conversion of substrate to product. The percent conversion can be plotted against concentration of inhibitor to produce a sigmoidal dose response curve, from which an IC50 can be calculated using XLFit for Microsoft Excel.
The Desktop Profiler utilizes the same priniciple as the LC3000 for calculating percentage conversion of a substrate to product. Caliper Life Sciences provides proprietary flash frozen pre-made 384 well plates containing selected kinases. Each column in the 384 well plate contains a particular selected kinase. A second plate, the ‘substrate plate’ contains a mix of fluorescently labeled peptide substrate and ATP. These are arranged in columns so that transfer for substrate plate to enzyme plate provides the correct enzyme with the correct substrate/ATP concentration. Compounds are added to a thawed enzyme plate in the desired format, in single concentrations. Reactions are initiated by transfer of the substrate/ATP mix from the substrate plate. The enzyme plate is incubated for 90 minutes at 25 C. The reaction is stopped by addition of 70 ul of Stop Buffer (100 mM HEPES pH 7.5, 0.015% Brij-35, 10 mM EDTA (Sigma, E7889)).
Reading of the plate in the Profiler is identical to the LC3000, and the ratio between substrate and product peaks provides the activity of the enzyme in that well. This is best represented by a plate heat map which colors each well by percent inhibition as compared to positive and negative controls (no inhibitors and no ATP respectively).

SMILES: CN1Cc2c(Nc3ccc(NC(=O)c4cccc(F)c4)cc3F)ccnc2NC1=O [Example 20, 3-fluoro-N-(3-fluoro-4-(3-methyl-2-oxo-1,2,3,4-tetrahydropyrido [2,3-d]pyrimidin-5-ylamino)phenyl) benzamide]
IC50: < 10 nM

SMILES: COc1ccc(CN2Cc3c(Nc4ccc(NC(=O)c5ccc(F)cc5C(F)(F)F)cc4)ccnc3NC2=O)cc1 [Example 5, 4-fluoro-N-(4-(3-(4-methoxybenzyl)-2-oxo-1,2,3,4-tetrahydropyrido [2,3-d]pyrimidin-5-ylamino)phenyl)-2-(trifluoromethyl) benzamide]
IC50: 100 to 1000 nM

SMILES: O=C(Nc1ccc(Nc2ccnc3c2CN(CC(F)(F)F)C(=O)N3)c(F)c1)c1ccc(F)cc1C(F)(F)F [Example 40, 4-fluoro-N-(3-fluoro-4-(2-oxo-3-(2,2,2-trifluoroethyl)-1,2,3,4-tetrahydropyrido[2,3-d]pyrimidin-5-ylamino)phenyl)-2-(trifluoromethyl) benzamide]
IC50: < 10 nM

SMILES: O=C1NCc2c(Nc3ccc(NC(=O)c4ccccc4)cc3)ccnc2N1 [Example 4, N-(4-(2-oxo-1,2,3,4-tetrahydropyrido [2,3-d]pyrimidin-5-ylamino)phenyl)benzamide]
IC50: 10 to 100 nM

SMILES: CN(C)CCN1Cc2c(Nc3ccc(NC(=O)c4ccc(F)cc4C(F)(F)F)cc3)ccnc2NC1=O [Example 11, N-(4-(3-(2-(dimethylamino)ethyl)-2-oxo-1,2,3,4-tetrahydropyrido [2,3-d]pyrimidin-5-ylamino)phenyl)-4-fluoro-2-(trifluoromethyl) benzamide]
IC50: 100 to 1000 nM

SMILES: O=C(Nc1ccc(Nc2ccnc3c2CN(CC(F)(F)F)C(=O)N3)cc1)c1ccc(F)cc1C(F)(F)F [Example 38, 4-fluoro-N-(4-(2-oxo-3-(2,2,2-trifluoroethyl)-1,2,3,4-tetrahydropyrido [2,3-d]pyrimidin-5-ylamino)phenyl)-2-(trifluoromethyl) benzamide]
IC50: 10 to 100 nM

SMILES: O=C(Nc1ccc(Nc2ccnc3c2CN(C2CC2)C(=O)N3)cc1)c1ccccc1 [Example 14, N-(4-(3-cyclopropyl-2-oxo-1,2,3,4-tetrahydropyrido[2,3-d]pyrimidin-5-ylamino)phenyl) benzamide]
IC50: 100 to 1000 nM

SMILES: CN1Cc2c(Nc3ccc(NC(=O)c4ccc(F)cc4C(F)(F)F)cc3F)ccnc2NC1=O [Example 28, 4-fluoro-N-(3-fluoro-4-(3-methyl-2-oxo-1,2,3,4-tetrahydropyrido [2,3-d]pyrimidin-5-ylamino)phenyl)-2-(trifluoromethyl) benzamide]
IC50: < 10 nM

SMILES: O=C(Nc1ccc(Nc2ccnc3c2CN(CCO)C(=O)N3)cc1)c1ccc(F)cc1C(F)(F)F [Example 30, 4-fluoro-N-(4-(3-(2-hydroxyethyl)-2-oxo-1,2,3,4-tetrahydropyrido [2,3-d]pyrimidin-5-ylamino)phenyl)-2-(trifluoromethyl) benzamide]
IC50: 10 to 100 nM

SMILES: CCN1Cc2c(Nc3ccc(NC(=O)c4ccc(F)cc4C(F)(F)F)cc3F)ccnc2NC1=O [Example 36, N-(4-(3-ethyl-2-oxo-1,2,3,4-tetrahydropyrido [2,3-d]pyrimidin-5-ylamino)-3-fluorophenyl)-4-fluoro-2-(trifluoromethyl) benzamide]
IC50: < 10 nM

SMILES: O=C(Nc1ccc(Nc2ccnc3c2CN(c2ccc(CN4CCCC4)cc2)C(=O)N3)cc1)c1ccc(F)cc1C(F)(F)F [Example 8, 4-fluoro-N-(4-(2-oxo-3-(4-(pyrrolidin-1-ylmethyl)phenyI)-1,2,3,4-tetrahydropyrido[2,3-d]pyrimidin-5-ylamino)phenyl)-2-(trifluoromethyl)benzamide]
IC50: 100 to 1000 nM

SMILES: O=C(Nc1ccc(Nc2ccnc3c2CN(C2CC2)C(=O)N3)cc1)c1ccc(F)cc1C(F)(F)F [Example 15, N-(4-(3-cyclopropyl-2-oxo-1,2,3,4-tetrahydropyrido [2,3-d]pyrimidin-5-ylamino)phenyl)-4-fluoro-2-(trifluoromethyl) benzamide]
IC50: 10 to 100 nM

SMILES: O=C(Nc1ccc(Nc2ccnc3c2CN(c2ccc(CN4CCCC4)cc2)C(=O)N3)cc1)c1ccccc1 [Example 9, N-(4-(2-oxo-3-(4-(pyrrolidin-1-ylmethyl)phenyl)-1,2,3,4-tetrahydropyrido[2,3-d]pyrimidin-5-ylamino)phenyl)benzamide]
IC50: 100 to 1000 nM

SMILES: O=C1NCc2c(Nc3ccc(NC(=O)c4ccc(F)cc4C(F)(F)F)cc3)ccnc2N1 [Example 6, 4-fluoro-N-(4-(2-oxo-1,2,3,4-tetrahydropyrido[2,3-d]pyrimidin-5-ylamino)phenyl)-2-(trifluoromethyl) benzamide]
IC50: < 10 nM

More lines, now with the values ahead:

IC50: 100 to 1000 nM
SMILES: COc1ccc(CN2Cc3c(Nc4ccc(NC(=O)Nc5ccc(F)c(F)c5)cc4)ccnc3NC2=O)cc1 [Example 120, N-(3,4-difluorophenyl)-N′-(4-{[3-(4-methoxybenzyl)-2-oxo-1,2,3,4-tetrahydropyrido[2,3-d]pyrimidin-5-yl]amino}phenyl)urea]

IC50: 10 to 100 nM
SMILES: O=C(Nc1ccc(Nc2ccnc3c2CNC(=O)N3)cc1)Nc1ccc(F)cc1C(F)(F)F [Example 121, N-[4-fluoro-2-(trifluoromethyl)phenyl]-N′-{4-[(2-oxo-1,2,3,4-tetrahydropyrido[2,3-d]pyrimidin-5-yl)amino]phenyl}urea]

IC50: 100 to 1000 nM
SMILES: COc1ccc(CN2Cc3c(Nc4ccc(NC(=O)Nc5ccc(F)cc5C(F)(F)F)cc4)ccnc3NC2=O)cc1 [Example 119, N-[4-fluoro-2-(trifluoromethyl)phenyl]-N′-(4-{[3-(4-methoxybenzyl)-2-oxo-1,2,3,4-tetrahydropyrido[2,3-d]pyrimidin-5-yl]amino}phenyl)urea]

IC50: 100 to 1000 nM
SMILES: O=C(CC(F)(F)F)Nc1ccc(Nc2ccnc3c2CNC(=O)N3)cc1 [Example 107, 3,3,3-trifluoro-N-{4-[(2-oxo-1,2,3,4-tetrahydropyrido[2,3-d]pyrimidin-5-yl)amino]phenyl}propanamide]

IC50: 10 to 100 nM
SMILES: O=C(CC1CC1)Nc1ccc(Nc2ccnc3c2CNC(=O)N3)cc1 [Example 108, 2-cyclopropyl-N-{4-[(2-oxo-1,2,3,4-tetrahydropyrido[2,3-d]pyrimidin-5-yl)amino]phenyl}acetamide]

IC50: < 10 nM
SMILES: O=C1NCc2c(Nc3ccc(NC(=O)c4ccc(F)cc4C(F)(F)F)cc3F)ccnc2N1 [Example 116, 4-fluoro-N-{3-fluoro-4-[(2-oxo-1,2,3,4-tetrahydropyrido[2,3-d]pyrimidin-5-yl)amino]phenyl}-2-(trifluoromethyl)benzamide]

IC50: 10 to 100 nM
SMILES: CN1Cc2c(Nc3ccc(NC(=O)c4ccccc4F)cc3F)ccnc2NC1=O [Example 41, 2-fluoro-N-(3-fluoro-4-(3-methyl-2-oxo-1,2,3,4-tetrahydropyrido [2,3-d]pyrimidin-5-ylamino)phenyl) benzamide]

IC50: 100 to 1000 nM
SMILES: COc1ccc(CN2Cc3c(Nc4ccc(NC(=O)c5cccc(F)c5)cc4F)ccnc3NC2=O)cc1 [Example 113, 3-fluoro-N-(3-fluoro-4-{[3-(4-methoxybenzyl)-2-oxo-1,2,3,4-tetrahydropyrido[2,3-d]pyrimidin-5-yl]amino}phenyl)benzamide]

IC50: 100 to 1000 nM
SMILES: COc1ccc(CN2Cc3c(Nc4ccc(NC(=O)CC(F)(F)F)cc4)ccnc3NC2=O)cc1 [Example 100, 3,3,3-trifluoro-N-(4-{[3-(4-methoxybenzyl)-2-oxo-1,2,3,4-tetrahydropyrido[2,3-d]pyrimidin-5-yl]amino}phenyl)propanamide]
